This assay deals with T1, NTCP (Homo sapiens, UniProt Q14973).
T1 construct: expressed in transfected cells; host or cells: HepG2-hNTCP-C4
T1 sequence (Q14973 1-349): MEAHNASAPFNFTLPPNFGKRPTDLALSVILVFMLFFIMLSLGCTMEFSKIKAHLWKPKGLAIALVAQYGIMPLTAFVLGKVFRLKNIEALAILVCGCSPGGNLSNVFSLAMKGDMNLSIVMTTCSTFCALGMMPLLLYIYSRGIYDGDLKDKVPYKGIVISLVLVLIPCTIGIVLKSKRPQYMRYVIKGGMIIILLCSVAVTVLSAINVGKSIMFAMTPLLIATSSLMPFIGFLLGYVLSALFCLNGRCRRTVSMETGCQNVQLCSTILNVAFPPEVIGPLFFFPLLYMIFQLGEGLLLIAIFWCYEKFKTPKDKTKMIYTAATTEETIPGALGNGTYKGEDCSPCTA
Nature of the assay: Inhibition of the binding between PreS1 (FITC-labelled) and NTCP expressing cell lines, flow cytometry. Particulars: for activity at 50 µM: 2 h, read-out: relative fluorescence intensity compared to the HBV-induced group (HBV PreS1) solely treated with PreS1, 50 µM compound, 20 nM PreS1, HepG2-hNTCP-C4 cell line, 4°C, 2 hours, the lower the value, the more inhibited the binding. As to the method: HepG2-hNTCP-C4 cell line, a cell line expressing NTCP, was seeded in a 6 well plate at a density of 2×10^5/well and incubated at 4°C for 30 minutes when the confluency reached 80% after overnight incubation for 2 days. Thereafter, 20 nM PreS 1 (Myr-[…]-Lys(FITC)) and the compounds in Example 1, Examples 38 to 56 or the compound in Comparative Example 1 were treated by diluting in culture media at 4°C at a concentration of 50 µM respectively, and the media was suctioned after 2 hours, followed by washing 3 times with 4°C PBS. In order to take the cells off from the plate, 500 µl of 0.5 mM EDTA PBS solution was treated, and then incubation was performed at 37°C for 15 minutes to check whether the cells fell off through an optical microscope. After taking off the cells by pipetting, the cells were collected in a 1.5 ml tube and centrifuged (4000 rpm, 4°C, 3 min). After suctioning the supernatant, the pellet was washed 3 times with 4°C PBS, and then green fluorescence was measured via flow cytometry. In this case, taurocholic acid (TCA), a compound known as a substrate of NTCP to reduce the entry of HBV or HDV, was used as a positive control group.
In the graph at the top of FIG. 1, black (1) and red (2) indicate a negative control group with no treatment and an HBV-induced group (HBV preS1) solely treated with PreS1, respectively. Blue (HBV preS1+HBV entry inhibitor) (3) is the fluorescence value for each of Examples or Comparative Examples, evaluated that the closer to the negative control group, the more inhibited the binding between PreS1 and the NTCP cell line.
The experimental method was the same as in the Experimental Example 1-1, and 20 nM PreS1 and each compound were treated at 4 concentrations (0.2 µM, 2 µM, 10 µM, 50 µM).
With an expectation that there is a structure-activity relationship among compounds composed of bile acid and amino acids, for each of bile acids in Comparative Example 1 (lithocholic acid, LCA), Comparative Example 2 (ursodeoxycholic acid, UDCA), Comparative Example 3 (cholic acid, CA), Comparative Example 4 (hyodeoxycholic acid, HDCA), Comparative Example 5 (deoxycholic acid, DCA), and Comparative Example 6 (chenodeoxycholic acid, CDCA), an evaluation experiment was conducted on an ability to inhibit the binding between PreS1 and NTCP expressing cell lines, and also for Examples 1 (LCA-Ile) and Example 44 (LCA-Val) as well as the compounds in Example 2 (UDCA-Ile), Example 3 (UDCA-Val), Example 6 (CA-Ile), Example 7 (CA-Val), Example 8 (HDCA-Ile), Example 9 (HDCA-Val), Example 10 (DCA-Ile), Example 11 (DCA-Val), Example 14 (CDCA-Ile), and Example 15 (CDCA-Val) in which bile acid parts (lithocholic acid) of Example 1 (LCA-Ile) and Example 44 (LCA-Val) were substituted with other types of bile acids in Comparative Examples 2 to 6, an evaluation experiment was conducted on an ability to inhibit the binding between PreS1 and NTCP expressing cell lines. The experimental method was the same as in the Experimental Example 1-1, and 18 compounds in the Comparative Examples 1 to 6, Examples 1 to 3, Examples 6 to 11, Examples 14 to 15, and Example 44 were treated at a concentration of 50 µM along with 20 nM PreS 1. […]
In the Experimental Examples 1-4, it was determined whether there is additionally concentration dependence for Example 4 (UDCA-Trp), a compound with good inhibitory ability. […]
In general terms: Flow cytometry measures light scatter and fluorescence of single cells or particles in a stream.

As for `C[C@H](CCC(=O)N[C@@H](CS)C(=O)O)[C@H]1CC[C@H]2[C@@H]3CC[C@@H]4C[C@H](O)CC[C@]4(C)[C@H]3CC[C@]12C` [Example 40, (R)-2-((R)-4-((3R,5R,8R,9S,10S,13R,14S,17R)-3-hydroxy-10,13-dimethyl-hexadecahydro-1H-cyclopenta[a]phenanthren-17-yl)pentanamido)-3-mercaptopropanoic acid], the activity at 50 µM was at most 20%. As for `C[C@H](CCC(=O)N[C@@H](Cc1c[nH]c2ccccc12)C(=O)O)[C@H]1CC[C@H]2[C@@H]3[C@@H](O)C[C@@H]4C[C@H](O)CC[C@]4(C)[C@H]3CC[C@]12C` [Example 4, (S)-2-((R)-4-((3R,5S,7S,8R,9S,10S,13R,14S,17R)-3,7-dihydroxy-10,13-dimethyl-hexadecahydro-1H-cyclopenta[a]phenanthren-17-yl)pentanamido)-3-(1H-indol-3-yl)propanoic acid], where the note is “2 µM, 10 µM, 20 µM, 50 µM compound, 20 nM PreS1”, the “effect of inhibiting the binding between PreS1 and NTCP expressing cell lines by treatment concentration” value was “concentration dependent”. Turning to `C[C@H](CCC(=O)N1CCCC1C(=O)O)[C@H]1CC[C@H]2[C@@H]3CC[C@@H]4C[C@H](O)CC[C@]4(C)[C@H]3CC[C@]12C` (stereo partly drawn) [Example 38, 1-((R)-4-((3R,5R,8R,9S,10S,13R,14S,17R)-3-hydroxy-10,13-dimethyl-hexadecahydro-1H-cyclopenta[a]phenanthren-17-yl)pentanoyl)pyrrolidine-2-carboxylic acid], the activity at 50 µM is at most 20%. On the same count and under the same terms, under `CC(C)C[C@H](NC(=O)CC[C@@H](C)[C@H]1CC[C@H]2[C@@H]3CC[C@@H]4C[C@H](O)CC[C@]4(C)[C@H]3CC[C@]12C)C(=O)O` [Example 47] stands at most 20%; under `CSCC[C@H](NC(=O)CC[C@@H](C)[C@H]1CC[C@H]2[C@@H]3CC[C@@H]4C[C@H](O)CC[C@]4(C)[C@H]3CC[C@]12C)C(=O)O` [Example 48, (S)-2-((R)-4-((3R,5R,8R,9S,10S,13R,14S,17R)-3-hydroxy-10,13-dimethyl-hexadecahydro-1H-cyclopenta[a]phenanthren-17-yl)pentanamido)-4-(methylthio)butanoic acid], at most 20%.

The values are drawn from EP4310093A1, “AMINO ACID DERIVATIVE, PREPARATION METHOD THEREFOR, AND PHARMACEUTICAL COMPOSITION FOR TREATING HEPATITIS, COMPRISING SAME” (priority 2021, dated 2022).
